In patent US20090036448A1, “PYRIMIDINE DERIVATIVES AND METHODS OF TREATMENT RELATED TO THE USE THEREOF” (TAISHO PHARMECUTICAL CO., LTD., priority 2004, published 2009) one finds class data, which are given here for 28 compounds.

SMILES strings stand for the structures.

Chain of MCH receptor (Q99705 whole entry): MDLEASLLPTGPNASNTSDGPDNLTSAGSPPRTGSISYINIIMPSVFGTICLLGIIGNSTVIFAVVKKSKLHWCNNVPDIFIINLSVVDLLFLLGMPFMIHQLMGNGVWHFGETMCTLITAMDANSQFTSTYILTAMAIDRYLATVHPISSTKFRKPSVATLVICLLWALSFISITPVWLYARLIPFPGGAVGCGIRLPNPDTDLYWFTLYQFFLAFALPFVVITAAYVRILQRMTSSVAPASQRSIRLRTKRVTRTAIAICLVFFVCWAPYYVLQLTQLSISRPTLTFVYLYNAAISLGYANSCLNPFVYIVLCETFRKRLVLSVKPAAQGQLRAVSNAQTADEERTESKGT

In this experiment the target is MCH receptor (Homo sapiens, UniProt Q99705). The experiment is described as follows: Receptor binding assay with Radiolabelled MCH Ligand. Also on record: expressed in transfected cells; host or cells: 293 cells (human kidney, ATCC), transient transfection; crude membranes. The following applies: class by percent of control at 10^-7 M or IC50. The source says:
In addition to the methods described herein, another means for evaluating a test compound is by determining binding affinities to the MCH receptor. This type of assay generally requires a radiolabelled ligand to the MCH receptor. Absent the use of known ligands for the MCH receptor and radiolabels thereof, compounds of Formula (I) can be labelled with a radioisotope and used in an assay for evaluating the affinity of a test compound to the MCH receptor.
A radiolabelled MCH compound of Formula (I) can be used in a screening assay to identify/evaluate compounds. In general terms, a newly synthesized or identified compound (i.e., test compound) can be evaluated for its ability to reduce binding of the “radiolabelled compound of Formula (I)” to the MCH receptor. Accordingly, the ability to compete with the “radio-labelled compound of Formula (I)” or Radiolabelled MCH Ligand for the binding to the MCH receptor directly correlates to its binding affinity of the test compound to the MCH receptor.
293 cells (human kidney, ATCC), transiently transfected with 10 μg human MCH receptor and 60 μl Lipofectamine (per 15-cm dish), are grown in the dish for 24 hours (75% confluency) with a media change and removed with 10 mL/dish of Hepes-EDTA buffer (20 mM Hepes+10 mM EDTA, pH 7.4). The cells are then centrifuged in a Beckman Coulter centrifuge for 20 minutes, 17,000 rpm (JA-25.50 rotor). Subsequently, the pellet is resuspended in 20 mM Hepes+1 mM EDTA, pH 7.4 and homogenized with a 50-mL Dounce homogenizer and again centrifuged. After removing the supernatant, the pellets can be stored at −80° C., until used in binding assay. When used in the assay, membranes are thawed on ice for 20 minutes and then 10 mL of incubation buffer (20 mM Hepes, 1 mM MgCl2, 100 mM NaCl, pH 7.4) added. The membranes are then vortexed to resuspend the crude membrane pellet and homogenized with a Brinkmann PT-3100 Polytron homogenizer for 15 seconds at setting 6. The concentration of membrane protein is determined using the BRL Bradford protein assay.
For total binding, a total volume of 50 ul of appropriately diluted membranes (diluted in assay buffer containing 50 mM Tris HCl (pH 7.4), 1 mM MgCl2, and 1 mM EDTA; 5-50 ug protein) is added to 96-well polyproylene microtiter plates followed by addition of 100 μl of assay buffer and 50 μl of Radiolabelled MCH Ligand. For nonspecific binding, 50 μl of assay buffer is added instead of 100 μl and an additional 50 μl of 10 uM cold MCH is added before 50 μl of Radiolabelled MCH Ligand is added. Plates are then incubated at room temperature for 60-120 minutes. The binding reaction is terminated by filtering assay plates through a Microplate Devices GF/C Unifilter filtration plate with a Brandell 96-well plate harvester followed by washing with cold 50 mM Tris HCl, pH 7.4 containing 0.9% NaCl. Then, the bottom of the filtration plate are sealed, 50 ul of Optiphase Supermix is added to each well, the top of the plates are sealed, and plates are counted in a Trilux MicroBeta scintillation counter. For compound competition studies, instead of adding 100 μl of assay buffer, 100 μl of appropriately diluted test compound is added to appropriate wells followed by addition of 50 μl of Radiolabelled MCH Ligand.
The test compounds are initially assayed at 1 and 0.1 μM and then at a range of concentrations chosen such that the middle dose would cause about 50% inhibition of a Radiolabelled MCH Ligand binding (i.e., IC50). Specific binding in the absence of test compound (BO) is the difference of total binding (BT) minus non-specific binding (NSB) and similarly specific binding (in the presence of test compound) (B) is the difference of displacement binding (BD) minus non-specific binding (NSB). IC50 is determined from an inhibition response curve, logit-log plot of % B/BO vs. concentration of test compound.
Ki is calculated by the Cheng and Prustoff transformation: […]
Regarding `Cc1nc(N[C@H]2CC[C@@H](NCc3nn(-c4ccccc4)nc3C)CC2)cc(N(C)C)n1` [compound 376], the class is recorded as 3 (Class 3: The value of percent of control at 10^−7 M was more than 60% or the value of IC50 was more than 200 nM.).

Regarding `Cc1nc(N[C@H]2CC[C@@H](NC(=O)Oc3cccc(C(F)(F)F)c3)CC2)cc(N(C)C)n1` [compound 454], the class was 3 (Class 3: The value of percent of control at 10^−7 M was more than 60% or the value of IC50 was more than 200 nM.). Take `Cc1nc(N[C@H]2CC[C@@H](NC(=O)c3ccccc3C(=O)Nc3cccc4ccccc34)CC2)cc(N(C)C)n1` [compound 332]: the class is on record as 3 (Class 3: The value of percent of control at 10^−7 M was more than 60% or the value of IC50 was more than 200 nM.). `Cc1nc(N[C@H]2CC[C@@H](NC(=O)c3ccccc3C(=O)c3ccc(F)cc3)CC2)cc(N(C)C)n1` [compound 304]: the class was 3 (Class 3: The value of percent of control at 10^−7 M was more than 60% or the value of IC50 was more than 200 nM.). Turning to `CCCCCc1ccc(C(=O)N[C@H]2CC[C@@H](Nc3cc(N(C)C)nc(C)n3)CC2)cc1` [compound 252], the class was 3 (Class 3: The value of percent of control at 10^−7 M was more than 60% or the value of IC50 was more than 200 nM.).

`Cc1nc(N[C@H]2CC[C@@H](NCc3cccc(C(F)(F)F)c3)CC2)cc(N(C)C)n1` [compound 386]: the class is listed as 3 (Class 3: The value of percent of control at 10^−7 M was more than 60% or the value of IC50 was more than 200 nM.). Next, `Cc1nc(N[C@H]2CC[C@@H](NC(=O)Nc3cccc4ccccc34)CC2)cc(N(C)C)n1` [compound 432]: 3 (Class 3: The value of percent of control at 10^−7 M was more than 60% or the value of IC50 was more than 200 nM.); `Cc1nc(N[C@H]2CC[C@@H](NC(=O)c3ccc(F)c(F)c3)CC2)cc(N(C)C)n1` [compound 218, N-(cis-4-{[6-(dimethylamino)-2-methylpyrimidin-4-yl]amino}cyclohexyl)-3,4-difluorobenzamide]: 1 (Class 1: The value of percent of control at 10^−7 M was less than 40% or the value of IC50 was less than 50 nM.); `Cc1nc(N[C@H]2CC[C@@H](NCCOc3ccc(Cl)cc3)CC2)cc(N(C)C)n1` [compound 361]: 3 (Class 3: The value of percent of control at 10^−7 M was more than 60% or the value of IC50 was more than 200 nM.).

`Cc1nc(N[C@H]2CC[C@@H](NCCSc3ccccc3)CC2)cc(N(C)C)n1` [compound 391]: the class is 3 (Class 3: The value of percent of control at 10^−7 M was more than 60% or the value of IC50 was more than 200 nM.). With `Cc1ccc(-c2cc(C(=O)N[C@H]3CC[C@@H](Nc4cc(N(C)C)nc(C)n4)CC3)cs2)cc1` [compound 288] the figure was 3 (Class 3: The value of percent of control at 10^−7 M was more than 60% or the value of IC50 was more than 200 nM.). For `COc1ccc(CC(=O)N[C@H]2CC[C@@H](Nc3cc(N(C)C)nc(C)n3)CC2)cc1OC` [compound 245], the class is reported as 3 (Class 3: The value of percent of control at 10^−7 M was more than 60% or the value of IC50 was more than 200 nM.).

As to `COC(=O)c1cc(S(=O)(=O)N[C@H]2CC[C@@H](Nc3cc(N(C)C)nc(C)n3)CC2)oc1C` [compound 508], the class is 3 (Class 3: The value of percent of control at 10^−7 M was more than 60% or the value of IC50 was more than 200 nM.).

As to `Cc1nc(N[C@H]2CC[C@@H](NC(=O)c3ccccc3COc3ccccc3)CC2)cc(N(C)C)n1` [compound 331, N-(cis-4-{[6-(dimethylamino)-2-methylpyrimidin-4-yl]amino}cyclohexyl)-[(2-phenyloxy)methyl]benzamide], the class is on record as 3 (Class 3: The value of percent of control at 10^−7 M was more than 60% or the value of IC50 was more than 200 nM.).

As for `COc1ccc(NC(=S)N[C@H]2CC[C@@H](Nc3cc(N(C)C)nc(C)n3)CC2)cc1OC` [compound 445], the class is 3 (Class 3: The value of percent of control at 10^−7 M was more than 60% or the value of IC50 was more than 200 nM.). For the compound `Cc1ccnc(SCC(=O)N[C@H]2CC[C@@H](Nc3cc(N(C)C)nc(C)n3)CC2)n1` [compound 280], the class was 3 (Class 3: The value of percent of control at 10^−7 M was more than 60% or the value of IC50 was more than 200 nM.). For the compound `Cc1nc(N[C@H]2CC[C@@H](NC(=O)c3cccc4c(=O)c(C)c(-c5ccccc5)oc34)CC2)cc(N(C)C)n1` [compound 320], the class is 3 (Class 3: The value of percent of control at 10^−7 M was more than 60% or the value of IC50 was more than 200 nM.). As to `Cc1nc(N[C@H]2CC[C@@H](NC(=O)C3CC(=O)c4ccccc43)CC2)cc(N(C)C)n1` (relative stereo) [compound 299], the class was 3 (Class 3: The value of percent of control at 10^−7 M was more than 60% or the value of IC50 was more than 200 nM.). On to `Cc1nc(N[C@H]2CC[C@@H](NC(=O)c3ccc(OCc4ccccc4)cc3)CC2)cc(N(C)C)n1` [compound 329], for which the class is on record as 3 (Class 3: The value of percent of control at 10^−7 M was more than 60% or the value of IC50 was more than 200 nM.). With `Cc1nc(N[C@H]2CC[C@@H](NCc3ccc(C(C)(C)C)cc3)CC2)cc(N(C)C)n1` [compound 356] the figure was 3 (Class 3: The value of percent of control at 10^−7 M was more than 60% or the value of IC50 was more than 200 nM.). For `Cc1nc(N[C@H]2CC[C@@H](NC(=O)C3C[C@H]3c3ccccc3)CC2)cc(N(C)C)n1` (stereo partly shown) [compound 236], the class was 3 (Class 3: The value of percent of control at 10^−7 M was more than 60% or the value of IC50 was more than 200 nM.). Consider `Cc1nc(N[C@H]2CC[C@@H](NC(=O)Cc3ccccc3C(=O)Nc3ccc(OC(F)(F)F)cc3)CC2)cc(N(C)C)n1` [compound 297], for which the class is reported as 3 (Class 3: The value of percent of control at 10^−7 M was more than 60% or the value of IC50 was more than 200 nM.).

Turning to `Cc1cc(C)c(C(=O)C(=O)N[C@H]2CC[C@@H](Nc3cc(N(C)C)nc(C)n3)CC2)c(C)c1` [compound 350], the class is recorded as 3 (Class 3: The value of percent of control at 10^−7 M was more than 60% or the value of IC50 was more than 200 nM.). For `Cc1nc(N[C@H]2CC[C@@H](NC(=O)C=C3c4ccccc4-c4ccccc43)CC2)cc(N(C)C)n1` [compound 352], the class is 3 (Class 3: The value of percent of control at 10^−7 M was more than 60% or the value of IC50 was more than 200 nM.). Turning to `Cc1nc(N[C@H]2CC[C@@H](NC(=O)c3ccc4c(c3)OCO4)CC2)cc(N(C)C)n1` [compound 237], the class was 3 (Class 3: The value of percent of control at 10^−7 M was more than 60% or the value of IC50 was more than 200 nM.). Take `Cc1nc(N[C@H]2CC[C@@H](NC(=O)OCc3ccccc3Cl)CC2)cc(N(C)C)n1` [compound 468]: the class is on record as 3 (Class 3: The value of percent of control at 10^−7 M was more than 60% or the value of IC50 was more than 200 nM.). Take `Cc1nc(N[C@H]2CC[C@@H](NC(=O)CC(C)C(F)(F)F)CC2)cc(N(C)C)n1` (relative stereo) [compound 314]: the class was 3 (Class 3: The value of percent of control at 10^−7 M was more than 60% or the value of IC50 was more than 200 nM.). As for `COc1ccc(OC)c(NC(=O)Cc2ccccc2C(=O)N[C@H]2CC[C@@H](Nc3cc(N(C)C)nc(C)n3)CC2)c1` [compound 295], the class was 3 (Class 3: The value of percent of control at 10^−7 M was more than 60% or the value of IC50 was more than 200 nM.).
